Publication PMC3733713, “Downscaling the Analysis of Complex Transmembrane Signaling Cascades to Closed Attoliter Volumes” (PLoS ONE, 2013)

Molecular target: T1, adenosine A2A receptor (A2AR-YFP) (Homo sapiens, UniProt P29274)
T1 construct: gene ADORA2A; Human adenosine 2A receptor fused C-terminally to EYFP
Test: fluorescence correlation spectroscopy titration on single native vesicles from HEK293T cells (KD =[…] on cells)
Assay type: binding

T1 sequence (P29274 whole entry, the tested form may be a part): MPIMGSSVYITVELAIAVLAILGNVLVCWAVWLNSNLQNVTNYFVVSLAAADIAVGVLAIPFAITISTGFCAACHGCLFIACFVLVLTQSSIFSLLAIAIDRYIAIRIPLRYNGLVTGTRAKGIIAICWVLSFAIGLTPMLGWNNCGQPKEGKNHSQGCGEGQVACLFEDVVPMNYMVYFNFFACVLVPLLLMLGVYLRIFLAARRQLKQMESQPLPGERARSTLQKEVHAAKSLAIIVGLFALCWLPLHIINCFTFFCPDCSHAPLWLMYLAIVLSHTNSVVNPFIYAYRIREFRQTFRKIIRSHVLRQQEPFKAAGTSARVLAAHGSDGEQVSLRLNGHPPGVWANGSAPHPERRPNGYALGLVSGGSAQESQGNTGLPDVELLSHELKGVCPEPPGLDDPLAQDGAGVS

## XAC-Atto655
  Kd: 67 ± 11 nM
